System: rat small-intestinal brush border membrane vesicles
Experiment: Inhibitory effect on 33PO4 uptake into rat small-intestinal brush border membrane vesicles (rapid filtration method)
Format: biochemical, Wistar female rat
Conditions: 1 µM test compound; 33PO4 uptake into rat small-intestinal BBMVs, 60 seconds
In short: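 33PO4 uptake into rat small-intestinal brush border membrane vesicles measured by rapid filtration. Reactions were stopped with ice-cold buffer (110 mM NaCl, 1 mM KH2PO4, 10 mM HEPES pH 7.5), filtered and washed. Vesicle-associated radioactivity was counted by liquid scintillation.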

Compound	Rate of uptake inhibition (%) (1 µM)
C[C@]12CCCN1N(Cc1cccc(F)c1F)C(=O)C(C(=O)Nc1ccc(C(F)(F)F)cc1-c1ncnc(Cl)c1Cl)=C2O [Example 70]	79
C[C@]12CCCN1N(Cc1c(F)cc(CCCCCCCOC[C@H](O)[C@@H](O)CO)cc1F)C(=O)C(C(=O)Nc1ccc(C(F)(F)F)cc1-c1ccc(C(F)(F)F)nc1)=C2O [Example 125, (4aR)-1-[[2,6-Difluoro-4-[7-[(2S,3S)-2,3,4-trihydroxybutoxy]heptyl]phenyl]methyl]-4-hydroxy-4a-methvl-2-oxo-N-[4-(trifluoromethyl)-2-[6-(trifluoromethyl)pyridin-3-yl]phenyl]-6,7-dihydro-5H-pyrrolo[1,2-b]pyridazine-3-carboxamide]	76
CN1N(Cc2ccc(OCCCCCCC(=O)O)c(F)c2F)C(=O)C(C(=O)Nc2ccc(C(F)(F)F)cc2-c2cc(C(F)(F)F)ncn2)=C(O)C12CCCC2 [Example 335]	30
COc1ncc(-c2cc(C(F)(F)F)ccc2NC(=O)C2=C(O)[C@@]3(C)CCCN3N(Cc3cccc(F)c3F)C2=O)c(OC)n1 [Example 72]	92
CN1[C@@H](C(C)(C)C)C(O)=C(C(=O)Nc2cccc(C(F)(F)F)n2)C(=O)N1Cc1cccc(F)c1F [Example 244]	71
COC[C@@H]1CCCN1CCOc1ccc(CN2C(=O)C(C(=O)Nc3ccc(C(F)(F)F)cc3-c3cc(C(F)(F)F)ncn3)=C(O)C3(CCCC3)N2C)c(F)c1F [Example 375]	31
CN1N(Cc2ccc(C#CCN3CCOCC3)c(F)c2F)C(=O)C(C(=O)Nc2ccc(Cl)cc2-c2cc(C(F)(F)F)ncn2)=C(O)C1(C)C [Example 316, N-[4-Chloro-2-[6-(trifluoromethyl)pyrimidin-4-yl]phenyl]-2-[[2,3-difluoro-4-(3-morpholin-4-ylprop-1-ynil)phenyl]methyl]-5-hydroxy-1,6,6-trimethyl-3-oxopyridazine-4-carboxamide]	64
C[C@]12CCCN1N(Cc1ccc(C#CCOCCCCO)c(F)c1F)C(=O)C(C(=O)Nc1ccc(C(F)(F)F)cc1-c1ccc(C(F)(F)F)nc1)=C2O [Example 128]	72
COCCN(C)CCOc1c(I)cc(CN2C(=O)C(C(=O)Nc3ccc(C(F)(F)F)cc3-c3cc(C(F)(F)F)ncn3)=C(O)C3(CCCC3)N2C)c(F)c1F [Example 437, 7-[[2,3-Difluoro-5-iodo-4-[2-[2-methoxyethyl(methyl)amino]ethoxy]phenyl]methyl]-10-hydroxy-6-methyl-8-oxo-N-[4-(trifluoromethyl)-2-(6-(trifluoromethyl)pyrimidin-4-yl]phenyl]-6,7-diazaspiro[4.5]dec-9-ene-9-carboxamide]	45
C[C@]12CCCN1N(Cc1c(F)cccc1F)C(=O)C(C(=O)Nc1ccc(C(F)(F)F)cc1-c1ccc(C(F)(F)F)nc1)=C2O [Example 203]	91
C[C@]12CCCN1N(Cc1ccc(Cl)cc1)C(=O)C(C(=O)Nc1cc(F)c(Br)c(F)c1)=C2O [Example 223]	77
C[C@]12CCCN1N(Cc1cc(F)ccc1F)C(=O)C(C(=O)Nc1ccc(C(F)(F)F)cc1-c1ccc(C(F)(F)F)nc1)=C2O [Example 172]	72
CN(CCOc1ccc(CN2C(=O)C(C(=O)Nc3ccc(C(F)(F)F)cc3-c3cc(C(F)(F)F)ncn3)=C(O)C3(CCCC3)N2C)c(F)c1F)C1CCOCC1 [Example 365]	34
COc1cc(C)c(-c2cc(C(F)(F)F)ccc2NC(=O)C2=C(O)[C@@]3(C)CCCN3N(Cc3cccc(F)c3F)C2=O)cn1 [Example 80]	75
C[C@]12CCCN1N(Cc1ccc(CCCOCCCO)c(F)c1F)C(=O)C(C(=O)Nc1ccc(C(F)(F)F)cc1-c1ccc(C(F)(F)F)nc1)=C2O [Example 141]	83
Cc1nc(NC(=O)C2=C(O)[C@H](C(C)(C)C)N(C)N(Cc3cccc(F)c3F)C2=O)ccc1Br [Example 241]	86
CN1N(Cc2cccc(F)c2F)C(=O)C(C(=O)Nc2ccc(C(F)(F)F)cc2-c2ccc(S(=O)(=O)N(C)C)cc2)=C(O)C1(C)C [Example 308]	63
CC(C)[C@H]1C(O)=C(C(=O)Nc2ccc(C(F)(F)F)cc2-c2cc(C(F)(F)F)ncn2)C(=O)N(Cc2cccc(F)c2F)N1C [Example 252]	53
Cc1cccc(CN2C(=O)C(C(=O)Nc3cc(F)c(Br)c(F)c3)=C(O)[C@@]3(C)CCCN23)c1F [Example 195]	76
C[C@]12CCCN1N(Cc1ccccc1F)C(=O)C(C(=O)Nc1ccc(C(F)(F)F)cc1-c1ccc(C(F)(F)F)nc1)=C2O [Example 200]	80

Compound	Rate of uptake inhibition (%) (1 µM)
CN(CCO)CCOc1ccc(CN2C(=O)C(C(=O)Nc3ccc(C(F)(F)F)cc3-c3cc(C(F)(F)F)ncn3)=C(O)C3(CCC3)N2C)c(F)c1F [Example 347]	28
C[C@]12CCCN1N(Cc1cccc(OC(F)F)c1)C(=O)C(C(=O)Nc1ccc(C(F)(F)F)cc1-c1cc(C(F)(F)F)ncn1)=C2O [Example 177]	85
CN1N(Cc2cccc(F)c2F)C(=O)C(C(=O)Nc2cc(C(F)(F)F)ccc2-c2ccc(C(F)(F)F)nc2)=C(O)C1(C)C [Example 307]	41
C[C@]12CCCN1N(Cc1c(F)cc(C#CC3(O)CCCC3)cc1F)C(=O)C(C(=O)Nc1ccc(C(F)(F)F)cc1-c1ccc(C(F)(F)F)nc1)=C2O [Example 130]	72
CSc1ccc(-c2cc(C(F)(F)F)ccc2NC(=O)C2=C(O)[C@@]3(C)CCCN3N(Cc3ccc(C#CCCCCC(=O)O)c(F)c3F)C2=O)cn1 [Example 117, 7-[4-[[(4aR)-4-Hydroxy-4a-methyl-3-[[2-(6-methylsulfanylpyridin-3-yl)-4-(trifluoromethyl)phenyl]carbamoyl]-2-oxo-6,7-dihydro-5H-pyrrolo[1,2-b]pyridazin-1-yl]methyl]-2,3-difluorophenyl]hept-6-ynoate]	78
C[C@]12CCCN1N(Cc1c(Cl)cc(OCCN3CCOCC3)cc1Cl)C(=O)C(C(=O)Nc1ccc(C(F)(F)F)nc1-c1ccc(C(F)(F)F)nc1)=C2O.Cl [Example 148, (4aR)-1-[[2,6-Dichloro-4-(2-morpholin-4-ylethoxy)phenyl]methyl]-4-hydroxy-4a-methyl-2-oxo-N-[6-(trifluoromethyl)-2-[6-(trifluoromethyl)pyridin-3-yl]pyridin-3-yl]-6,7-dihydro-5H-pyrrolo[1,2-b]pyridazine-3-carboxamide hydrochloride]	75
(4aR)-1-[(3-Fluorophenyl)methyl]-4-hydroxy-4a-methyl-N-[5-methyl-2-(trifluoromethyl)furan-3-yl]-2-oxo-6,7-dihydro-5H-pyrrolo[1,2-b]pyridazine-3-carboxamide [Example 6]	48
C[C@]12CCCN1N(Cc1cccc(F)c1F)C(=O)C(C(=O)Nc1ccc(Br)cc1F)=C2O [Example 75]	74
COCCN(C)CCN(c1ccc(CN2C(=O)C(C(=O)Nc3ccc(C(F)(F)F)cc3-c3cc(C(F)(F)F)ncn3)=C(O)C3(CCCC3)N2C)c(F)c1F)C(C)C [Example 445]	29
CN(CCOCCC(=O)NCC(O)CO)CCOc1ccc(CN2C(=O)C(C(=O)Nc3ccc(C(F)(F)F)cc3-c3cc(C(F)(F)F)ncn3)=C(O)C3(CCCC3)N2C)c(F)c1F (stereo not drawn) [Example 426]	24
C[C@]12CCCN1N(Cc1ccc(C#CCN3CCCC3=O)c(F)c1F)C(=O)C(C(=O)Nc1ccc(Br)c(F)c1)=C2O [Example 131]	87
CN1N(Cc2ccc(OCCCCOC[C@H](O)CO)c(F)c2F)C(=O)C(C(=O)Nc2ccc(C(F)(F)F)cc2-c2cc(C(F)(F)F)ncn2)=C(O)C12CCCC2 [Example 393]	45
CN1N(Cc2ccc(OCCN3CCN(CCCO)CC3)c(F)c2F)C(=O)C(C(=O)Nc2ccc(C(F)(F)F)cc2-c2cc(C(F)(F)F)ncn2)=C(O)C12CCC2 [Example 362]	17
COc1cccc(-c2cc(C(F)(F)F)ccc2NC(=O)C2=C(O)[C@@]3(C)CCCN3N(Cc3ccc(C#CCOCCCCO)c(F)c3F)C2=O)c1OC [Example 123, (4aR)-1-[[2,3-Difluoro-4-[3-(4-hydroxybutoxy)prop-1-ynil]phenyl]methyl]-N-[2-(2.3-dimethoxyphenyl)-4-(trifluoromethyl)phenyl]-4-hydroxy-4a-methyl-2-oxo-6,7-dihydro-5H-pyrrolo[1,2-b]pyridazine-3-carboxamide]	87
C[C@@H]1COC[C@H](C)N1CCOc1ccc(CN2C(=O)C(C(=O)Nc3ccc(C(F)(F)F)cc3-c3cc(C(F)(F)F)ncn3)=C(O)C3(CCC3)N2C)c(F)c1F [Example 344]	58
CN1N(Cc2ccc(OCCN3CCN(CCOCCO)CC3)c(F)c2F)C(=O)C(C(=O)Nc2ccc(C(F)(F)F)cc2-c2cc(C(F)(F)F)ncn2)=C(O)C12CCCC2 [Example 378]	35
CN1[C@@H](C(C)(C)C)C(O)=C(C(=O)Nc2cc(F)c(Br)c(F)c2)C(=O)N1Cc1cccc(F)c1F [Example 240]	72
C[C@]12CCCN1N(Cc1cccc(F)c1F)C(=O)C(C(=O)Nc1ccc(C(F)(F)F)cc1)=C2O [Example 89]	67
CN1N(Cc2ccc(OCCN3CCN(CCO)CC3)c(F)c2F)C(=O)C(C(=O)Nc2ccc(C(F)(F)F)cc2-c2cc(C(F)(F)F)ncn2)=C(O)C12CCCC2 [Example 376]	33

From patent EP2975030B1, “DIHYDROPYRIDAZINE-3,5-DIONE DERIVATIVE” (Chugai Seiyaku Kabushiki Kaisha, priority 2013, dated 2014)
